From ChEMBL document CHEMBL1131722, “P1, P2'-linked macrocyclic amine derivatives as matrix metalloproteinase inhibitors” (Bioorg Med Chem Lett, 1999)

How the values were obtained:
Interstitial collagenase = biological target: T1, Interstitial collagenase (Homo sapiens, UniProt P03956); experiment: Inhibition of Matrix metalloprotease-1 (MMP-1)
T1 sequence (P03956 whole entry): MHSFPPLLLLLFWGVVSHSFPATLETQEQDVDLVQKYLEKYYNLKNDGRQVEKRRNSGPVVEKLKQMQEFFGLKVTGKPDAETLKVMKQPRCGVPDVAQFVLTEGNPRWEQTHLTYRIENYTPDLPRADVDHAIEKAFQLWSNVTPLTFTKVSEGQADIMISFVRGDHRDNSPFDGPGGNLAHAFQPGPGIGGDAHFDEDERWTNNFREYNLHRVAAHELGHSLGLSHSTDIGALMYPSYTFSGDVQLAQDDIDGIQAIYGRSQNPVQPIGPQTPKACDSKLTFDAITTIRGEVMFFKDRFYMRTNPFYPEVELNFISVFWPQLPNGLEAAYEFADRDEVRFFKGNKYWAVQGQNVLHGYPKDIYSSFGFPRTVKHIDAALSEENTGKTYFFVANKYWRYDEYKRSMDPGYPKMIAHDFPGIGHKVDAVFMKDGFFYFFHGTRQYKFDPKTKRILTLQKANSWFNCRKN

[1] = biological target: Matrix metalloproteinase-9 (Homo sapiens, UniProt P14780); experiment: Inhibition of Matrix metalloprotease-9 (MMP-9)
Stromelysin-1 = Stromelysin-1 (Homo sapiens, UniProt P08254); experiment: Inhibition of Matrix metalloprotease-3 (MMP-3)
Neutrophil collagenase = Neutrophil collagenase (Homo sapiens, UniProt P22894); experiment: Inhibition of Matrix metalloprotease-8 (MMP-8)
Sequence of Neutrophil collagenase (P22894 whole entry): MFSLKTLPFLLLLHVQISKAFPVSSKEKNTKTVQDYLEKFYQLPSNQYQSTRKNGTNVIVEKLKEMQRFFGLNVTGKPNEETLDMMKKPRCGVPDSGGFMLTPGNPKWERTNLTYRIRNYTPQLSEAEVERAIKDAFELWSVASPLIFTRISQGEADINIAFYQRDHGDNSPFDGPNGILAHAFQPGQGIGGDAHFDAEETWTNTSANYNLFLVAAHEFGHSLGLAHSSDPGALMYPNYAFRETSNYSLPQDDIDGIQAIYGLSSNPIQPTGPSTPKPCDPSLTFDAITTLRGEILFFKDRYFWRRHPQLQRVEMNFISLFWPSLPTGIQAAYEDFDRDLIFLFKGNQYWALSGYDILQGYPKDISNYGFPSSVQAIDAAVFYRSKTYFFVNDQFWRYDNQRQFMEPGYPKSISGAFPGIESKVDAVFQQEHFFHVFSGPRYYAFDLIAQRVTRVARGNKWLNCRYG

Sequence of Stromelysin-1 (P08254 whole entry): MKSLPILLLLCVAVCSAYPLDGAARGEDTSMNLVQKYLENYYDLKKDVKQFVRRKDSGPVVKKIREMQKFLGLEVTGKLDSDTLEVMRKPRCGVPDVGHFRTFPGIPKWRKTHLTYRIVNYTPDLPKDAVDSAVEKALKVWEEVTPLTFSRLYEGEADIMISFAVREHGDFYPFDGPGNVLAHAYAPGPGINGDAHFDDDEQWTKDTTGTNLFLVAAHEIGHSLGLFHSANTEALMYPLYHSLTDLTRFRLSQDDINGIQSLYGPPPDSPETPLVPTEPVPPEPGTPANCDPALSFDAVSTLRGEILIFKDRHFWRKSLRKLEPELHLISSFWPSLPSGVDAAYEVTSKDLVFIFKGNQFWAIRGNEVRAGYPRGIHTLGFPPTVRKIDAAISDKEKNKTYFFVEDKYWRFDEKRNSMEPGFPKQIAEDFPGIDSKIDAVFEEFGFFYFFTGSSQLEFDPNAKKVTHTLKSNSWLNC
Sequence of Matrix metalloproteinase-9 (P14780 whole entry): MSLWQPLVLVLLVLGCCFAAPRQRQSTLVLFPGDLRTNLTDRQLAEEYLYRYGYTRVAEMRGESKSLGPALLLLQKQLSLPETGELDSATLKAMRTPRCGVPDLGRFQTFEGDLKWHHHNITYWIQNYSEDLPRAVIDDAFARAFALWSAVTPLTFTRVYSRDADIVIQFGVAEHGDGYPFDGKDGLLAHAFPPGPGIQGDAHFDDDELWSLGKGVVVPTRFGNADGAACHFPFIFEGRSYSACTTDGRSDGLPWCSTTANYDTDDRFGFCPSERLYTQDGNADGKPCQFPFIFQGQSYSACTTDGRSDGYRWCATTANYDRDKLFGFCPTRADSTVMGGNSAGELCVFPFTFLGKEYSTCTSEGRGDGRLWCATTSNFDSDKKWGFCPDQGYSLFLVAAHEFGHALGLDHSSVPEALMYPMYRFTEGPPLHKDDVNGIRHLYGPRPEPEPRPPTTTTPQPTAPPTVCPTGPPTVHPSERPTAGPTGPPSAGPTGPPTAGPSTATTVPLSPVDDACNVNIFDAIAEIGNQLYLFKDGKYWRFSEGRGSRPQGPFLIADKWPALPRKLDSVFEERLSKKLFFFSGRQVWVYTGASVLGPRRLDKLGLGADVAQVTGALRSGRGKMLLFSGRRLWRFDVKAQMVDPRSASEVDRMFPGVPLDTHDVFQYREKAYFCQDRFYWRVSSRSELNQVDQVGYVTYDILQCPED

Compound | Ki (Interstitial collagenase) [nM] | Ki [1] [nM] | Ki (Stromelysin-1) [nM] | Ki (Neutrophil collagenase) [nM]
CNC(=O)[C@@H]1CCCN(S(=O)(=O)c2ccccc2)CCCCO[C@H](C(=O)NO)[C@@H](CCCc2ccccc2)C(=O)N1 | 110 | 2 |  | 
CNC(=O)[C@@H]1CCCN(C(C)=O)CCCCO[C@H](C(=O)NO)[C@@H](CCCc2ccccc2)C(=O)N1 | 248 | 6 | 38 | 
CNC(=O)[C@@H]1CCCN(C(C)=O)CC(C)CO[C@H](C(=O)NO)[C@@H](CCCc2ccccc2)C(=O)N1 (some centres not stated) | 440 | 13 | 267 | 7
CNC(=O)[C@@H]1CCCN(C(=O)OC(C)(C)C)CCCCO[C@H](C(=O)NO)[C@@H](CCCc2ccccc2)C(=O)N1 | 1070 | 19 | 373 | 13
CNC(=O)[C@@H]1CCCNCCCCO[C@H](C(=O)NO)[C@@H](CCCc2ccccc2)C(=O)N1 | 496 | 21 | 265 | 4
